Assays:
[1] = test system: collagen-induced arthritis; test: Arthritis severity score in collagen-induced arthritis (CIA) (Experiment 2); type: in vivo, Female Lewis rats; details: PEA 30 mg/kg; for Pr > F: 2x2 factor analysis on severity of arthritis, ibuprofen 5 mg/kg, PEA*IBU = interaction (synergy)
Protocol: Rheumatoid arthritis is a disease characterized by inflammatory pain, in which the involved joints present swelling, stiffness and often erosive processes. Female Lewis rats were maintained on a 12/12 hour light/dark cycle, at constant temperature and humidity and acclimated for 1 week, with free access to water and standard diet. […] Arthritis score, change in paw volume (mL), and change in body weight (g) were measured as indicators of inflammatory pain. Arthritis severity was measured every other day starting on day 25, using the following score: 0 = no sign of arthritis; 1 = swelling and/or redness of the paw or toe; 2 = two joints involved; 3 = more than two joints involved; and 4 = severe arthritis of the entire paw and toes. The arthritis index for each subject was calculated by adding the four scores of the individual paws. The change in paw volume compared to day 21 was assessed every two days by plethysmometry (Ugo Basile) starting from day 25. The change in weight was measured for each animal on day 21 and then every two days starting from day 25.
The chosen inflammatory pain indicators were analyzed via Generalized Linear Model (GLM) followed by post-hoc analysis based on Tukey-Kramer correction for multiple comparisons. […] All analyzes were performed using SAS software, version 9.4 (SAS Institute, Cary, NC, USA). P value < 0.05 was considered significant.

[2] = test system: inflammatory pain induced by CFA; test: Incapacitance test (spontaneous pain), CFA-induced inflammatory pain, chronic (14 days) oral treatment (Experiment 4); type: in vivo, male Sprague-Dawley rats; details: 2x2 ANOVA on percentage inhibition of spontaneous pain, interaction line = synergy
Protocol: The inflammatory pain model was induced by injecting Complete Freund's Adjuvant (CFA, Sigma-Aldrich) into the tibiotarsal joint of male Sprague-Dawley rats (Charles River), housed in 26x41 cm cages at the Animal Husbandry Centre. Laboratory Animals (Ce.S.A.L.) of the University of Florence with a 12-hour circadian cycle, water and food (standard diet) "ad libitum", temperature of 23±1°C. Intra-articular injection occurred according to the method described by Butler et al. (Pain 48:73-81,1992) after light anesthesia with 2% isoflurane. The skin surrounding the injection site was sterilized with 75% ethyl alcohol. Then a 28-gauge needle was inserted into the joint cavity, through which a volume of 50 µl of CFA was injected. The animals were then divided into the following treatment groups (N = 8): • Sham (control, a volume of physiological solution equal to that used for CFA animals was injected into the tibiotarsal joint) • Vehicle (CMC 1%) • Diclofenac (3 mg/kg) • Diclofenac (30 mg/kg) • PEA (10 mg/kg) • PEA-OXA (10 mg/kg) [formula] [formula] [formula] [formula]
The tested molecules - used both individually and in combination - were suspended in 1% CMC and administered orally daily from day 1 to day 14 (chronic treatment). […] Behavioral tests were conducted 24 hours after the last administration, in order to highlight the effect of repeated treatment on joint pain. Inflammatory pain induced by CFA injection was measured by paw pressure test. […] The nociceptive threshold has been expressed as the force to which the animal reacts by retracting its paw or vocalizing (Leighton et al., Br J Pharmacol 93:553-560,1988). An analgesimeter (Ugo Basile, Varese) was used for this purpose, which allows the mechanical hyperalgesia to be quantified. Furthermore, spontaneous pain was assessed using the incapacitance test, which evaluates variations in postural balance through the "Incapacitance" device (Linton Instrumentation, UK), a scale which simultaneously, but separately, measures the force imparted by each paw (Fernandes et al., Arthritis Res Ther. 2016 Jan 11;18:7).
Briefly, rats were trained to stand on their hind legs in a box with an inclined plane (65° to the horizontal), placed above the "Incapacity" apparatus. […] The results were expressed in terms of "painful potency", defined as percentage inhibition (mean ± SEM) of inflammatory pain induced by CFA and calculated according to the formula: 100* (treatm-VEIC)/(CTRL-VEIC)."
The effect on pain was analyzed using Generalized Linear Model (GLM) followed by post-hoc analysis based on Tukey-Kramer correction for multiple comparisons. The results of the analyses were expressed as mean ± standard error of the mean (SEM). […]

With `CCCCCCCCCCCCCCCC(=O)NCCO` [PEA, N-palmitoylethanolamide] the “Pr > F” value ([1]; Giorno 33) was <0,0001, the “Pr > F” value ([1]; Giorno 35) was <0,0001 and the “effect on arthritis score” value ([1]; day 31 up to end of study (day 35), oral from day 25, low-dose IBU 5 mg/kg, high-dose IBU 30 mg/kg) was “had no effect”. The “Pr > F” value ([2]; PEA 5 mg/kg + diclofenac 3 mg/kg compared with diclofenac 3 mg/kg and PEA 10 mg/kg alone) was <0,0001 and the “Pr > F” value ([2]; PEA 10 mg/kg, diclofenac 3 mg/kg) was 0,0084.

Source: patent EP4628074A1, “N-PALMITOYLETHANOLAMIDE FOR USE IN COMBINATION WITH A NON-STEROIDAL ANTI-INFLAMMATORY DRUG IN THE TREATMENT OF INFLAMMATORY PAIN” (priority 2024, dated 2025)
